The target of the experiment is T1, U87-MG cell line of overexpressed mutant IDH2 (R140Q) (Homo sapiens, UniProt P48735, R140Q).
T1 construct: expressed in transfected cells
T1 sequence (P48735 40-452 R140Q): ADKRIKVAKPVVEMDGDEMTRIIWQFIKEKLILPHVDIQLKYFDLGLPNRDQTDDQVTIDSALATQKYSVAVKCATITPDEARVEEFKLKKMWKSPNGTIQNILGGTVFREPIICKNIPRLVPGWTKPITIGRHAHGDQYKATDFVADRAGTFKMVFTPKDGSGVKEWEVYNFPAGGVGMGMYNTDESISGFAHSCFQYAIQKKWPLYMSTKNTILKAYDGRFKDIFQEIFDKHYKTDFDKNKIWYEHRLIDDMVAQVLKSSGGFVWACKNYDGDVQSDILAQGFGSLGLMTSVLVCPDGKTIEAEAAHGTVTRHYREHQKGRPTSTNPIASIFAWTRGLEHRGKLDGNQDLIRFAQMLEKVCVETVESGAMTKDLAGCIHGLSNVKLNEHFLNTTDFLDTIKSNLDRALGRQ
Briefly: Cell activity in vitro: 2-HG in culture supernatant of U87-MG (IDH2-R140Q) cells by LC-MS/MS. Type of experiment: cell-based. The method, then:
1.2 Cells: human glioblastoma cell line U87-MG, purchased from the American Type Culture Collection (ATCC);
Cell recovery: U87-MG (IDH2-R140Q) cells and U87-MG cells were put into a 37° C. water bath, then transferred to 15 mL of pre-warmed medium, centrifuged at 1000 rpm for 5 minutes, and the medium was discarded. The cells were resuspended in 15 mL of fresh medium, transferred to a T75 flask and cultured in a 37° C. incubator with 5% CO2. After 24 hours, the medium was changed to fresh medium.
Cell passage: The above-mentioned recovered cells were transferred to a 50 mL sterile centrifuge tube, centrifuged at 1000 rpm for 5 minutes, and the medium was discarded. The cells were resuspended evenly and counted. The cell density was adjusted appropriately in a 15 mL fresh medium, and then added to T75 culture flask. The culture flask was incubated in an incubator with 5% CO2 at 37° C.
After cells grown to a relatively high density in the culture dish, the cells were trypsinized, resuspended in medium (MEM+10% FBS), and counted. After adjusting the cell concentration, the resuspended cells were seeded in a 96-well plate at 5×10^3 cells per well. After inoculation, the cells were cultured for 24 hours until the cells adhered. The medium were sucked out, and the medium containing gradient concentration of compound was added, 100 μL per well. The cells were further cultured for 72 hours. The s 20 μL of upernatant was taken and put into a 2 mL 96-well sample-processing plate. 480 μL of dilution solution was added and shaken for mixing, and then centrifuged at 4500 rpm for 5 minutes. 200 μL of supernatant was transferred for LC-MS/MS injection analysis.
Column: Shim-pack XR-ODS 30L*2.0; mobile phase: acetonitrile-0.2% ammonia, 5 mM ammonium acetate aqueous solution; column temperature: 30° C.; flow rate: 0.4 mL/min; gradient elution conditions are as follows: […]
Atmospheric […] chemical ionization (APCI) was used. Source parameters was set as follows: IonSpray Voltage/IS-4500V; auxiliary gas 1 (Ion Source Gas 1/GS 1, N2), 55Arb; auxiliary gas 2 (Ion Source Gas 2, N2), 55Arb; auxiliary gas heating temperature (Temperature/TEM), 500° C.; curtain gas/CUR, 25Arb; collision gas/CAD, N2, 8 Pa.
Multi-ion reaction monitoring (MRM) in negative ion mode (Negative) was used. […] The internal standard (IS) MRM parameters: parent ion (Q 1 Mass), 178.0 Da; daughter ion (Q3 Mass), 149.0 Da; Decluster Potential (DP), −51V; collision voltage (Collision Energy/CE), −17 eV
By determining the 2-HG content in the cell culture supernatant of each well using LC-MS/MS, the mutant enzyme activity (2-HG remaining compared to untreated %) was calculated. The calculation formula: 2-HG remaining compared to untreated %=(Measured 2-HG level—U87-MG control 2-HG level)/(Untreated 2-HG level—U87-MG control 2-HG level)×100. […] Data were processed by GraphPad Prism v5.0 software and fitted to obtain IC50.

In the case of `CC(C)(O)CNc1nc(Nc2ccnc(C(F)(F)F)c2)nc(-c2cccc(C(F)(F)F)n2)n1` [AG-221, 2-methyl-1-(4-(6-(trifluoromethyl)pyridin-2-yl)-6-(2-(trifluoromethyl)pyridin-4-ylamino)-1,3,5-triazin-2ylamino)propan-2-ol, reference compound], the IC50 (commonly the midpoint of a concentration-inhibition curve) was determined as 30.2 nM.

The values above are taken from patent US10961222B2, “Chemical compound of isocitrate dehydrogenase inhibitor, and application thereof” (NANJING SANHOME PHARMACEUTICAL CO., LTD., priority 2016, dated 2021).
